In US20100267561A1, “HERBICIDAL PYRIDAZINONE DERIVATIVES” (priority 2007, published 2010):

Experiments:
Assay in all cases: Test B pre-/postemergence plant response
Format in all cases: in vivo
[1] = system: velvetleaf (Abutilon theophrasti)
Procedure, shortened: (§1)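 Visual scoring from 0 (no effect) to 100 (complete control) against untreated controls was done 13 to 15 days after greenhouse treatment. Chemicals were formulated in a surfactant-containing non-phytotoxic solvent and applied to soil preemergence or to 1- to 4-leaf (2-18 cm) plants postemergence.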

[2] = system: cocklebur (Xanthium strumarium); conditions: for Cocklebur plant response rating: 8 g ai/ha
Procedure, shortened: as §1

[3] = system: pigweed (Amaranthus retroflexus)
Procedure, shortened: as §1

[4] = system: catchweed bedstraw (Galium aparine); conditions: Preemergence; for Galium plant response rating: scale 0 to 100
Procedure, shortened: as §1

kochia (Kochia scoparia) = conditions: for Kochia plant response rating: postemergence, 0-100 scale; for Plant response rating, Kochia: Postemergence
Procedure, shortened: as §1

[5] = system: woolly cupgrass (Eriochloa villosa); conditions: for Cupgrass, Woolly plant response rating: 8 g ai/ha
Procedure, shortened: as §1

[6] = system: large crabgrass (Digitaria sanguinalis)
Procedure, shortened: as §1

[7] = system: common ragweed (Ambrosia elation)
Procedure, shortened: as §1

corn (Zea mays) = system: corn (Zea mays)
Procedure, shortened: as §1

[8] = system: blackgrass (Alopecurus myosuroides); conditions: for Blackgrass plant response rating: 8 g ai/ha
Procedure, shortened: as §1

wild oat (Avena fatua) = system: wild oat (Avena fatua)
Procedure, shortened: as §1

[9] = system: green foxtail (Setaria viridis)
Procedure, shortened: as §1

[10] = system: yellow nutsedge (Cyperus esculentus)
Procedure, shortened: as §1

[11] = system: lambsquarters (Chenopodium album)
Procedure, shortened: as §1

[12] = 8 g ai/ha, postemergence, 0-100 scale
[13] = 16 g ai/ha, postemergence, 0-100 scale
[14] = Postemergence, 31 g ai/ha, scale 0 to 100
[15] = Postemergence, 62 g ai/ha, scale 0 to 100, 0 no effect, 100 complete control
[16] = Preemergence, 31 g ai/ha, scale 0 to 100 (0 no effect, 100 complete control)
[17] = Preemergence, 62 g ai/ha, 0 to 100 scale, 0 no effect, 100 complete control
[18] = Preemergence, 8 g ai/ha, scale 0 to 100
[19] = Preemergence, 16 g ai/ha, scale 0 to 100
[20] = Postemergence, 16 g ai/ha, scale 0 to 100
[21] = Preemergence, 16 g ai/ha, scale 0 to 100 (0 no effect, 100 complete control)

CCCc1cc(-c2ccc(C(F)(F)F)cc2)nn1-c1c(O)cnn(C)c1=O [Compound 72]
Velvetleaf plant response rating [1, 12]: 0 | Velvetleaf plant response rating [1, 13]: 0 | Plant response rating, Velvetleaf [1, 14]: 0 | Plant response rating, Velvetleaf [1, 15]: 0 | Plant response rating, Velvetleaf [1, 16]: 0 | Plant response rating, Velvetleaf [1, 17]: 0 | Velvetleaf plant response rating [1, 18]: 0 | Velvetleaf plant response rating [1, 19]: 0 | Cocklebur plant response rating ([2]; postemergence, 0-100 scale): 0 | Plant response rating, Cocklebur [2, 20]: 0 | Plant response rating, Cocklebur [2, 14]: 0 | Plant response rating, Cocklebur [2, 15]: 0 | Plant response rating, Cocklebur [2, 21]: 0 | Plant response rating, Cocklebur [2, 16]: 0 | Plant response rating, Cocklebur [2, 17]: 0 | Cocklebur plant response rating ([2]; Preemergence, scale 0 to 100): 0 | Pigweed plant response rating [3, 12]: 0 | Pigweed plant response rating [3, 13]: 0 | Plant response rating, Pigweed [3, 14]: 0 | Plant response rating, Pigweed [3, 15]: 0 | Plant response rating, Pigweed [3, 16]: 0 | Plant response rating, Pigweed [3, 17]: 50 | Pigweed plant response rating [3, 18]: 0 | Pigweed plant response rating [3, 19]: 0 | Plant response rating, Galium ([4]; 31 g ai/ha, scale 0 to 100 (0 no effect, 100 complete control)): 0 | Plant response rating, Galium ([4]; 62 g ai/ha, 0 to 100 scale, 0 no effect, 100 complete control): 0 | Galium plant response rating ([4]; 8 g ai/ha): 0 | Galium plant response rating ([4]; 16 g ai/ha): 0 | Kochia plant response rating (kochia (Kochia scoparia); 8 g ai/ha): 0 | Kochia plant response rating (kochia (Kochia scoparia); 16 g ai/ha): 0 | Plant response rating, Kochia (kochia (Kochia scoparia); 31 g ai/ha, scale 0 to 100): 0 | Plant response rating, Kochia (kochia (Kochia scoparia); 62 g ai/ha, scale 0 to 100, 0 no effect, 100 complete control): 0 | Cupgrass, Woolly plant response rating ([5]; postemergence, 0-100 scale): 55 | Plant response rating, Cupgrass, Woolly [5, 20]: 80 | Plant response rating, Cupgrass, Woolly [5, 14]: 90 | Plant response rating, Cupgrass, Woolly [5, 15]: 90 | Plant response rating, Cupgrass, Woolly [5, 16]: 85 | Plant response rating, Cupgrass, Woolly [5, 17]: 100 | Cupgrass, Woolly plant response rating ([5]; Preemergence, scale 0 to 100): 70 | Crabgrass, Large plant response rating [6, 12]: 95 | Plant response rating, Crabgrass, Large [6, 20]: 100 | Plant response rating, Crabgrass, Large [6, 14]: 100 | Plant response rating, Crabgrass, Large [6, 15]: 100 | Plant response rating, Crabgrass, Large [6, 16]: 80 | Plant response rating, Crabgrass, Large [6, 17]: 100 | Crabgrass, Large plant response rating [6, 18]: 30 | Crabgrass, Large plant response rating [6, 19]: 50 | Ragweed plant response rating [7, 12]: 0 | Ragweed plant response rating [7, 13]: 0 | Plant response rating, Ragweed [7, 14]: 0 | Plant response rating, Ragweed [7, 15]: 0 | Plant response rating, Ragweed [7, 16]: 0 | Plant response rating, Ragweed [7, 17]: 10 | Ragweed plant response rating [7, 18]: 0 | Ragweed plant response rating [7, 19]: 0 | Corn plant response rating (corn (Zea mays); [12]): 50 | Plant response rating, Corn (corn (Zea mays); [20]): 90 | Plant response rating, Corn (corn (Zea mays); [14]): 90 | Plant response rating, Corn (corn (Zea mays); [15]): 100 | Plant response rating, Corn (corn (Zea mays); [16]): 85 | Plant response rating, Corn (corn (Zea mays); [17]): 100 | Corn plant response rating (corn (Zea mays); [18]): 70 | Corn plant response rating (corn (Zea mays); [19]): 80 | Blackgrass plant response rating ([8]; postemergence, 0-100 scale): 80 | Plant response rating, Blackgrass [8, 20]: 95 | Plant response rating, Blackgrass [8, 14]: 98 | Plant response rating, Blackgrass [8, 15]: 100 | Plant response rating, Blackgrass [8, 21]: 90 | Plant response rating, Blackgrass [8, 16]: 95 | Plant response rating, Blackgrass [8, 17]: 100 | Blackgrass plant response rating ([8]; Preemergence, scale 0 to 100): 60 | Oat, Wild plant response rating (wild oat (Avena fatua); [12]): 100 | Oat, Wild plant response rating (wild oat (Avena fatua); [13]): 100 | Plant response rating, Oat, Wild (wild oat (Avena fatua); [14]): 100 | Plant response rating, Oat, Wild (wild oat (Avena fatua); [15]): 100 | Plant response rating, Oat, Wild (wild oat (Avena fatua); [16]): 95 | Plant response rating, Oat, Wild (wild oat (Avena fatua); [17]): 98 | Oat, Wild plant response rating (wild oat (Avena fatua); [18]): 60 | Oat, Wild plant response rating (wild oat (Avena fatua); [19]): 80 | Foxtail, Green plant response rating [9, 12]: 98 | Plant response rating, Foxtail, Green [9, 20]: 98 | Plant response rating, Foxtail, Green [9, 14]: 100 | Plant response rating, Foxtail, Green [9, 15]: 100 | Plant response rating, Foxtail, Green [9, 16]: 100 | Plant response rating, Foxtail, Green [9, 17]: 100 | Foxtail, Green plant response rating [9, 18]: 25 | Foxtail, Green plant response rating [9, 19]: 100 | Nutsedge, Yellow plant response rating [10, 12]: 0 | Nutsedge, Yellow plant response rating [10, 13]: 0 | Plant response rating, Nutsedge, Yellow [10, 14]: 0 | Plant response rating, Nutsedge, Yellow [10, 15]: 0 | Plant response rating, Nutsedge, Yellow [10, 16]: 0 | Plant response rating, Nutsedge, Yellow [10, 17]: 0 | Nutsedge, Yellow plant response rating [10, 18]: 0 | Nutsedge, Yellow plant response rating [10, 19]: 0 | Lambsquarters plant response rating [11, 12]: 0 | Lambsquarters plant response rating [11, 13]: 0 | Plant response rating, Lambsquarters [11, 14]: 0 | Plant response rating, Lambsquarters [11, 15]: 0 | Plant response rating, Lambsquarters [11, 16]: 30 | Plant response rating, Lambsquarters [11, 17]: 40 | Lambsquarters plant response rating [11, 18]: 0 | Lambsquarters plant response rating [11, 19]: 0
